Where a name gives a salt, the structure may show the parent alone.

The subject of one test is male Wistar rats. The experiment in a line: Chronic mild stress (CMS) model, consumption of 1% sucrose solution. It counts as in vivo, rat. The note with it: for sucrose intake as compared to chronic vehicle administration: control animals; for duration of treatment until increase of sucrose intake reached significance / sucrose consumption (CMS-induced deficit) / sucrose intake at end of treatment vs vehicle-treated controls / sucrose intake at end of treatment vs vehicle-treated stressed animals: stressed animals; for sucrose intake at end of treatment vs vehicle-treated controls / sucrose intake at end of treatment vs vehicle-treated stressed animals: Week 5. The source says: Gene expression profiling of antidepressants should be carried in the context of a behavioral model of depression. […] [Willner, 1997 #144] [Yadid, 2000 #422]. The CMS model was developed to mimic anhedonia, a core symptom of depressive disorders. Chronic sequential administration of a variety of mild stressors causes a decrease in responsiveness to rewards in rats, which is reversed by chronic administration of antidepressants drugs [Willner, 1992 #150]. The CMS model of depression also causes a decrease in body weight [Forbes, 1996 #413] but the magnitude of this decrease is minor and the validity, reliability and utility of the CMS is overall well recognized [Yadid, 2000 #422] [Argyropoulos, 1997 #205] #] [Willner, 1996 #226].
On the basis of sucrose intake scores following two weeks of stress, both stressed and control groups were divided further into matched subgroups (n=8), and for the subsequent five weeks received twice-daily intraperitoneal injections of vehicle (isotonic mannitol solution, pH 4.0, 1 ml/kg) or novelR1 (0.16 mg/kg). […] Sucrose tests were carried out twenty-four hours following the last drug injection (in the case of b.i.d. regime, the second injections on the day preceding the sucrose tests were omitted).
The behavioral results obtained in this study were analyzed by multiple analysis of variance with three between-subjects factors (stress/control, drug treatments and successive sucrose tests). Fisher's LSD test was used for post-hoc comparisons of means.

For test [1], the system named is tyrosine hydroxylase mRNA. Briefly: Quantitative in situ hybridization histochemistry in locus coeruleus. The note with it: LC. It counts as in vivo, rat. Here is the method: In situ hybridization histochemistry was performed according to the procedures described [Bonaventure, 1998 #353] on adjacent tissue sections of the one used for LCM. The plasmid (pBluescript II SK, Stratagene, San Diego, Calif.) containing the cDNA coding for tyrosine hydroxylase (GB:M10244) was linearized and [^35S]UTP labeled cRNA probe was generated by in vitro transcription with T7 polymerase. Sections were hybridized at 50° C. with 1.106 c.p.m of [^35S]UTP labeled cRNA probe (80 μl per section). After high stringency washes, the sections were exposed to Kodak BiomaxMR film for sixteen hours. [^14C] standard strips (American Radiolabeled chemicals Inc., St Louis, Missouri) were co-exposed to allow densitometry. Autoradiograms were quantified with the aid of an MCID-M4 3.0 Image Analysis system (Imaging Research, St. Catharines, Ontario, Canada). Optical densities in the LC were transformed into levels of bound radioactivity after calibration of the image analyzer with grey-values generated by co-exposed standards. The hybridization signal was expressed as μCi/g. The Student's t-test was used for comparison between the groups.

For the compound `CN(C)CCCN1c2ccccc2CCc2ccccc21` [imipramine, imipramine HCl], in the test on male Wistar rats (CMS), the “sucrose intake at the end of the behavioral experiment” value (from here on “sucrose intake at the end”) came out at 13 grams. In the test on male Wistar rats (control), the “sucrose intake at the end” value is given as 13 grams. For the same compound, in the test on male Wistar rats, the “sucrose intake as compared to chronic vehicle administration” value is reported as “did not change the sucrose intake”, the “duration of treatment until increase of sucrose intake reached significance” value is reported as “three”, the “sucrose consumption (CMS-induced deficit)” value is recorded as “gradually increased the sucrose consumption” and the “sucrose intake at end of treatment vs vehicle-treated controls” value was “comparable”. Besides, in the test with male Wistar rats, the “sucrose intake at end of treatment vs vehicle-treated stressed animals” value was “significantly higher”. Besides, the “up-regulation of tyrosine hydroxylase mRNA level by in situ hybridization” value (from here on “up-regulation”) in test [1] (drug/CMS group) is listed as “confirmed”. Further, in test [1] (unstressed rats), the “up-regulation” value is given as “confirmed”.
For the compound `Cc1nc2ccccn2c(=O)c1CCN1CCc2oc3ccccc3c2C1` [novelR1], the “sucrose intake at the end” value in the test with male Wistar rats (CMS) came out at 13 grams. Besides, in the test on male Wistar rats (control), the “sucrose intake at the end” value came out at 13 grams. Besides, in the test on male Wistar rats, the “sucrose intake as compared to chronic vehicle administration” value is given as “no significant effect”, the “duration of treatment until increase of sucrose intake reached significance” value was “two”, the “sucrose consumption (CMS-induced deficit)” value is reported as “fully reversed” and the “sucrose intake at end of treatment vs vehicle-treated controls” value is on record as “did not differ”. In addition, in the test on male Wistar rats, the “sucrose intake at end of treatment vs vehicle-treated stressed animals” value is recorded as “significantly higher”. In addition, the “up-regulation” value in test [1] (drug/CMS group) is listed as “confirmed”. Further, the “up-regulation” value in test [1] (unstressed rats) is “confirmed”.
